Ten compounds from ChEMBL document CHEMBL1201862, “PubChem BioAssay data set” (2004) can be followed below.

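48-hour exposure; five concentrations; linearly interpolated endpoints. Abbreviation: GI50, concentration required for 50% inhibition of growth.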 Calls of active or inactive are those of the source. No stated cut-off is given here; in the data, active = GI50 up to about 1.1 µM and inactive = higher.

Test systems include 786-0; A549; BT-549; CCRF-CEM; COLO 205; EKVX; HOP-62; HOP-92; IGROV-1; K562; NCI-H226; NCI-H23; NCI-H522; OVCAR-3; PC-3; RXF 393; SNB-19; SNB-75; SW-620; TK-10.
Holding throughout (assay): NCI anticancer screen, dose series, 48 h

As for `NC(=O)NC(=O)c1cccc(NC(=O)CF)c1`, the GI50 in the assay with 786-0, in the assay on A549, in the assay on BT-549, in the assay with CCRF-CEM, in the assay with COLO 205 and in the assay on EKVX was > 100 µM (inactive) throughout. Besides, the GI50 is > 100 µM (inactive) with HOP-62; > 100 µM (inactive) in the assay with HOP-92; > 100 µM (inactive) with IGROV-1; > 100 µM (inactive) in the assay with K562; 73.5 µM (inactive) with NCI-H226; > 100 µM (inactive) in the assay with NCI-H23. Further, the GI50 in the assay with NCI-H522, in the assay with OVCAR-3, in the assay with PC-3, with RXF 393, in the assay on SNB-19 and with SNB-75 was > 100 µM (inactive) throughout. The GI50 in the assay on SW-620 and in the assay on TK-10 was > 100 µM (inactive) throughout.

On to `N#C/C(=C\c1ccccc1)c1nc(-c2cc3ccccc3oc2=O)cs1`, for which the GI50 is 53.5 µM (inactive) in the assay with 786-0; > 100 µM (inactive) in the assay on A549; 27.3 µM (inactive) in the assay with BT-549; > 100 µM (inactive) in the assay on CCRF-CEM; > 100 µM (inactive) in the assay with COLO 205; 71.3 µM (inactive) in the assay with EKVX. Further, the GI50 is 30.9 µM (inactive) in the assay on HOP-62; 32.1 µM (inactive) with HOP-92; 48.5 µM (inactive) with IGROV-1; > 100 µM (inactive) with K562; > 100 µM (inactive) in the assay with NCI-H226; > 100 µM (inactive) in the assay with NCI-H522. For the same compound, the GI50 with PC-3 was > 100 µM (inactive); in the assay on RXF 393 it was > 100 µM (inactive); in the assay with SNB-19 it was 74.3 µM (inactive); with SNB-75, 39.3 µM (inactive); in the assay on SW-620, > 100 µM (inactive); with TK-10, 45.2 µM (inactive).

Take `O=C(CCc1cc(O)cc(O)c1)NCCc1cc(O)cc(OCc2ccccc2)c1`: the GI50 in the assay with 786-0 was 64.9 µM (inactive); in the assay on A549, 42.3 µM (inactive); in the assay on BT-549, 29.6 µM (inactive); with CCRF-CEM, > 10 µM (inactive); with COLO 205 it was 48.3 µM (inactive); with EKVX, 57.3 µM (inactive). For the same compound, the GI50 is 43.6 µM (inactive) in the assay with HOP-62; 53.1 µM (inactive) in the assay with HOP-92; 59.3 µM (inactive) in the assay with IGROV-1; 36.1 µM (inactive) in the assay with K562; 62.7 µM (inactive) in the assay with NCI-H226; 23.4 µM (inactive) in the assay with NCI-H23. The GI50 in the assay on NCI-H522 was 36.5 µM (inactive); in the assay with OVCAR-3, 35.7 µM (inactive); in the assay with PC-3, 37.8 µM (inactive); in the assay on RXF 393, 37 µM (inactive); in the assay with SNB-19, 26.4 µM (inactive); in the assay with SNB-75, 27.2 µM (inactive). Further, the GI50 in the assay with SW-620 is 72.1 µM (inactive); in the assay on TK-10, > 100 µM (inactive).

In the case of `C=CCON(C(=O)OC(C)(C)C)C(C)(C)C`, the GI50 with 786-0, in the assay with A549, with BT-549, with CCRF-CEM, in the assay on COLO 205 and in the assay on EKVX was > 100 µM (inactive) throughout. The GI50 with HOP-62, in the assay with HOP-92, in the assay on IGROV-1, in the assay with K562, with NCI-H226 and in the assay on NCI-H23 was > 100 µM (inactive) throughout. Moreover, the GI50 in the assay with NCI-H522, in the assay on OVCAR-3, in the assay on PC-3, in the assay with RXF 393, in the assay on SNB-19 and in the assay on SNB-75 was > 100 µM (inactive) throughout. The GI50 in the assay on SW-620 and with TK-10 was > 100 µM (inactive) each time.

On to `Nc1ccc2c(c1)NC(=O)[C@@H]1CCCN1C2=O`, for which the GI50 in the assay on 786-0, with A549, in the assay with BT-549, in the assay on CCRF-CEM, in the assay with COLO 205 and with EKVX was > 100 µM (inactive) throughout. Besides, the GI50 with HOP-62, with HOP-92, in the assay on IGROV-1, in the assay on K562, with NCI-H226 and with NCI-H23 was > 100 µM (inactive) throughout. Further, the GI50 in the assay with NCI-H522, in the assay with OVCAR-3, in the assay with PC-3, in the assay on RXF 393, in the assay on SNB-19 and with SNB-75 was > 100 µM (inactive) each time. Moreover, the GI50 with SW-620 and in the assay on TK-10 was > 100 µM (inactive) each time.

For the compound `NNC(=O)c1nn[nH]c1SSc1[nH]nnc1C(=O)NN`, the GI50 in the assay on 786-0, in the assay with A549, in the assay with BT-549, in the assay on CCRF-CEM, in the assay on COLO 205 and with EKVX was > 100 µM (inactive) in each case. In addition, the GI50 with HOP-62, in the assay on HOP-92, in the assay on IGROV-1, with NCI-H226, in the assay on NCI-H23 and in the assay on NCI-H522 was > 100 µM (inactive) throughout. In addition, the GI50 in the assay with OVCAR-3, in the assay with PC-3, in the assay on RXF 393, with SNB-19, in the assay on SNB-75 and with SW-620 was > 100 µM (inactive) in each case. Also, the GI50 with TK-10 is > 100 µM (inactive).

Regarding `CCOC(=O)c1[nH]cc(C)c1-c1ccc2c(-c3ccccc3)nc3ccccc3n12`, the GI50 in the assay with 786-0 is 3.56 µM (inactive); in the assay with A549, 3.77 µM (inactive); in the assay with BT-549 it was 5.13 µM (inactive); with CCRF-CEM it was 2.68 µM (inactive); in the assay with COLO 205, 2.86 µM (inactive); in the assay on EKVX, 3.82 µM (inactive). Besides, the GI50 is 5.42 µM (inactive) with HOP-62; 3.52 µM (inactive) in the assay with HOP-92; 3.66 µM (inactive) with IGROV-1; 3.34 µM (inactive) in the assay on K562; 5.22 µM (inactive) with NCI-H226; 5.05 µM (inactive) with NCI-H23. The GI50 with NCI-H522 was 1.53 µM (inactive); in the assay on OVCAR-3 it was 4.13 µM (inactive); with PC-3, 3.01 µM (inactive); in the assay on RXF 393, 2.03 µM (inactive); in the assay with SNB-75 it was 1.85 µM (inactive); in the assay with SW-620 it was 3.13 µM (inactive). Further, the GI50 in the assay with TK-10 is 3.21 µM (inactive).

As for `Cc1cc(O)c(C(C)C)cc1C1(c2cc(C(C)C)c(O)cc2C)OC(=O)c2ccccc21`, the GI50 with 786-0 was 2.4 µM (inactive); in the assay on A549 it was 3.05 µM (inactive); with BT-549 it was 2.24 µM (inactive); with COLO 205, 1.93 µM (inactive); in the assay on EKVX, 2.99 µM (inactive); in the assay with HOP-62, 2.76 µM (inactive). Moreover, the GI50 was 1.92 µM (inactive) with HOP-92; 2.81 µM (inactive) in the assay on IGROV-1; 1.19 µM (inactive) in the assay on K562; 2.48 µM (inactive) in the assay with NCI-H226; 2.12 µM (inactive) in the assay with NCI-H23; 1.84 µM (inactive) in the assay on NCI-H522. Also, the GI50 in the assay on OVCAR-3 was 2.06 µM (inactive); in the assay on PC-3 it was 2.26 µM (inactive); with RXF 393 it was 1.47 µM (inactive); with SNB-19, 3.15 µM (inactive); in the assay with SNB-75 it was 2.58 µM (inactive); with SW-620, 1.76 µM (inactive). Also, the GI50 in the assay on TK-10 is 3.33 µM (inactive).

`O=[N+]([O-])/C=C/c1cc(Cl)c(/C=C/[N+](=O)[O-])cc1Cl`: the GI50 with 786-0 is 1.16 µM (inactive); in the assay on A549 it was 4.63 µM (inactive); in the assay with BT-549 it was 1.57 µM (inactive); in the assay with CCRF-CEM, 0.8 µM (active); in the assay on COLO 205, 1.95 µM (inactive); in the assay with EKVX, 1.91 µM (inactive). Also, the GI50 is 3.77 µM (inactive) in the assay on HOP-62; 2.55 µM (inactive) with HOP-92; 3.29 µM (inactive) in the assay on IGROV-1; 2.06 µM (inactive) in the assay on NCI-H226; 2.61 µM (inactive) with NCI-H23; 0.975 µM (active) with NCI-H522. The GI50 with OVCAR-3 is 1.97 µM (inactive); with PC-3, 2.55 µM (inactive); with RXF 393, 1.46 µM (inactive); in the assay with SNB-19, 2.37 µM (inactive); in the assay on SNB-75 it was 13.8 µM (inactive); in the assay on SW-620 it was 1.03 µM (active). Further, in the assay with TK-10, the GI50 was 2.12 µM (inactive).

With `COC1(CC[C@H](C)COC2OC(CO)C(O)C(O)C2O)O[C@H]2C[C@H]3[C@@H]4CC=C5C[C@@H](OC6OC(CO)C(OC7OC(C)C(O)C(O)C7O)C(O)C6OC6OC(C)C(O)C(O)C6O)CC[C@]5(C)[C@H]4CC[C@]3(C)[C@H]2[C@@H]1C` (stereo partly drawn), the GI50 in the assay with 786-0 is 2.42 µM (inactive); with A549 it was 1.99 µM (inactive); in the assay with BT-549 it was 4.88 µM (inactive); in the assay on CCRF-CEM it was 11.1 µM (inactive); in the assay on COLO 205 it was 6.25 µM (inactive); in the assay on EKVX, 19.5 µM (inactive). The GI50 with HOP-62 was 1.87 µM (inactive); in the assay on HOP-92 it was 1.9 µM (inactive); with IGROV-1, 6.73 µM (inactive); in the assay with NCI-H226, 5.73 µM (inactive); with NCI-H23, 5.53 µM (inactive); in the assay with NCI-H522 it was 2.31 µM (inactive). The GI50 with OVCAR-3 is 6.1 µM (inactive); with PC-3, 3.28 µM (inactive); with RXF 393, 4.57 µM (inactive); with SNB-19 it was 3.46 µM (inactive); in the assay on SNB-75 it was 1.86 µM (inactive); with SW-620, 2.67 µM (inactive). For the same compound, in the assay on TK-10, the GI50 is 35.6 µM (inactive).
